Reference: US20260294905A1, “USE OF PLURALITY OF COMPOUNDS IN PREPARATION OF DRUG FOR TREATING MYELOPROLIFERATIVE NEOPLASMS” (THE SECOND XIANGYA HOSPITAL OF CENTRAL SOUTH UNIVERSITY, priority 2022, published 2026)
Where “and” joins values, the source holds several entries; their conditions need not be identical. Equal values may be shown once. Entries after “also recorded” stand apart in the source; their conditions may differ.

Tests used:
[1] = test system: HEL^RE cells (Ruxolitinib-resistant HEL); assay: Annexin V-PI staining and flow cytometry, apoptosis of HEL^RE cells; assay type: cell-based, human; conditions: for average apoptosis rate of HEL-RE cells: 24 h
Experimental: (§1) To detect the apoptosis-promoting effect of the inhibitors, HEL naïve cell strains were treated with Ruxolitinib and the compounds for 24 hours respectively (with concentrations of: 0, 0.1, 0.5, 1 μM or 0, 0.1, 0.3, 1, 3, 10 μM), and added with DMSO to make up to the same amount. 3 parallel replicate groups were set up, and cell apoptosis was detected by Annexin V and PI staining followed by flow cytometry.
(§2) A calculation formula of cell apoptosis rate was: cell apoptosis rate=the ratio of early apoptotic cells (Annexin V^+/PI^−)+the ratio of late apoptotic cells and necrotic cells (Annexin V^+/PI^+).
In order to detect the effects of compounds on the abilities of drug-resistant myeloproliferative neoplasm cells, the method was to treat HEL^RE with increasing concentrations of Ruxolitinib and the compounds, and to detect cell apoptosis by Annexin V and PI staining followed by flow cytometry.

[2] = test system: HEL cells (human erythroleukemia cell line); assay: CellTiter-Lumi luminescence proliferation of naive HEL cells, 48 h; assay type: cell-based; conditions: for activity at 0.1 µM / activity at 0.3 µM / activity at 1 µM / activity at 3 µM / activity at 10 µM: vs DMSO control, read-out: average proliferation rate of HEL cells
Experimental: (§3) HELs (Human erythroleukemia cell lines) and Ruxolitinib-resistant HEL cells were both cultured in a RPMI medium (Gibco) containing 20% heat-inactivated fetal bovine serum (Gibco) and 1% penicillin/streptomycin.
(§4) Ruxolitinib and other compounds were all purchased from Selleck, dissolved in DMSO with a stock solution concentration of 10 mM, and cryopreserved at −80° C. The working solution was diluted to a specified multiple using a RPMI medium and then used for treating cells. Ruxolitinib was specifically ruxolitinib phosphate.
(§5) To detect the antiproliferative effect of the inhibitor, the aforementioned cell lines were cultured at 3,000 cells/100 μL of the system per well, added with increasing concentrations of Ruxolitinib (concentration gradients of HEL cells: 0, 0.1, 1, 2.5, 5 μM; or 0, 0.1, 0.3, 1, 3, 10 μM), and added with DMSO to make up to the same amount. 4 parallel replicate groups were set up, and 3 blank wells (wells containing culture media without cells) were set up.
(§6) A calculation formula of the cell proliferation rate was: cell proliferation rate=(Luminescence value of the group added with the drug-average Luminescence value of the blank wells)/(Luminescence value of the DMSO control group-average Luminescence value of the blank wells)×100%.
In order to detect the effects of the compounds on the proliferation abilities of drug-resistant myeloproliferative neoplasm cells, the method was to treat the HEL naïve cell lines with increasing concentrations of Ruxolitinib and the compounds respectively, and to detect the proliferation of the cells by a CellTiter-Lumi™ luminescence method.

[3] = test system: HEL^RE cells (Ruxolitinib-resistant HEL); assay: CellTiter-Lumi luminescence proliferation of Ruxolitinib-resistant HEL^RE cells, 48 h; assay type: cell-based, human; conditions: for activity at 0.1 µM / activity at 0.3 µM / activity at 1 µM / activity at 3 µM / activity at 10 µM: vs DMSO control, read-out: average proliferation rate of HEL^RE cells
Source text: as §3
A Ruxolitinib-resistant HEL model, i.e., a HEL^RE model, was constructed by starting the addition of Ruxolitinib at a concentration lower than the IC50 of naïve cells and slowly incrementing the concentration to a high concentration, and preventing the cells from being killed. Our starting concentration was 0.1 μM. The drug was added upon occurrence of cell proliferation. The drug addition gradient was an increment at a multiple of 1.25, and the final concentration was 2.0 μM. Stable drug-resistant cells were obtained after 4-6 weeks.
as §4, §5, §6
A method for evaluating whether the model was successfully constructed was to compare the IC50s of resistant cells and naïve cells.
In order to detect the effects of five compounds on the proliferation abilities of drug-resistant myeloproliferative neoplasm cells, the method was to treat HEL^RE with increasing concentrations of Ruxolitinib and the five compounds respectively, and to detect the proliferation of the cells by a CellTiter-Lumi™ luminescence method.

[4] = test system: HEL cells (human erythroleukemia cell line); assay: Annexin V-PI staining and flow cytometry, apoptosis of HEL cells, 24 h; assay type: cell-based
Experimental: • 1. the cell lines and inhibitors were the same as those in Example 1. • 2. detection of cell apoptosis
as §1, §2

[5] = test system: progressive or metastatic solid tumors; conditions: RP2D 2.7 mg, cited from earlier work
[6] = test system: myeloproliferative neoplasms patients; conditions: cited from earlier work
[7] = Homo sapiens, HEL^RE cells, 48 h

| Compound | average apoptosis rate of HEL-RE cells ([1]; 0.1 μM) | average apoptosis rate of HEL-RE cells ([1]; 0.3 μM) | average apoptosis rate of HEL-RE cells ([1]; 1 μM) | average apoptosis rate of HEL-RE cells ([1]; 3 μM) | average apoptosis rate of HEL-RE cells ([1]; 10 μM) | activity at 0.1 µM ([2]; Homo sapiens, 48 h) | activity at 0.3 µM ([2]; Homo sapiens, 48 h) | activity at 1 µM ([2]; Homo sapiens, 48 h) | activity at 3 µM ([2]; Homo sapiens, 48 h) | activity at 10 µM ([2]; Homo sapiens, 48 h) | activity at 0.1 µM [3, 7] | activity at 0.3 µM [3, 7] | activity at 1 µM [3, 7] | activity at 3 µM [3, 7] | activity at 10 µM [3, 7] | average apoptosis rate of HEL cells ([4]; 0.1 μM) | average apoptosis rate of HEL cells ([4]; 0.3 μM) | average apoptosis rate of HEL cells ([4]; 1 μM) | average apoptosis rate of HEL cells ([4]; 3 μM) | average apoptosis rate of HEL cells ([4]; 10 μM) | further results |
| --- | --- | --- | --- | --- | --- | --- | --- | --- | --- | --- | --- | --- | --- | --- | --- | --- | --- | --- | --- | --- | --- |
| CNS(=O)(=O)Nc1nccc(Cc2c(C)c3ccc(Oc4ncccn4)cc3oc2=O)c1F [RO5126766] | 6.25±0.920% and 6.25% | 5.88±1.25% and 5.88% | 7.32±1.74% and 7.32% | 4.71±0.350% and 4.71% | 5.42±0.830% and 5.42% | 85.8 ± 2.75% | 89 ± 13.5% | 83.4 ± 3.31% | 61.6 ± 3.79% | 47.1 ± 5.47% | 48.1 ± 3.37% | 41.4 ± 3.16% | 35.2 ± 2.89% | 31.5 ± 1.9% | 27.7 ± 2.34% | 6.00±0.290% and 6.00% | 6.96±1.16% and 6.96% | 6.11±0.640% and 6.11% | 8.32±2.69% and 8.32% | 6.73±1.20% and 6.73% | promotion of apoptosis of HEL^RE cells (in words) ([1]; 0.1-10 μM): could not promote apoptosis of the HEL^RE cells; inhibition of proliferation of HEL cells (in words) ([2]; 0.1-10 μM): can successfully inhibit the proliferation of the HEL cells; also recorded: could inhibit the proliferation of the HEL cells, and this effect increased with increase in the drug concentration; inhibition of proliferation of HEL^RE cells (in words) ([3]; HEL^RE cells, 0.1-10 μM): could inhibit the proliferation of the HEL^RE cells, and this effect increased with increase in the drug concentration; promotion of apoptosis of HEL cells (in words) ([4]; 0.1-10 μM): could not promote apoptosis of the HEL cells; anti-tumor activity ([5]; 4 consecutive days a week for 4 weeks): good anti-tumor activity; side effects [5]: tolerable side effects |
| N#CC[C@H](C1CCCC1)n1cc(-c2ncnc3[nH]ccc23)cn1 [Ruxolitinib] | 12.4±0.540% and 12.4% | 13.0±1.03% and 13.0% | 10.8±1.02% and 10.8% | 10.2±0.880% and 10.2% | 10.6±1.33% and 10.6% | 80.9 ± 1.35% | 54.9 ± 4.35% | 42.7 ± 4.05% | 34.7 ± 1.14% | 29.4 ± 0.49% | 105 ± 2.08% | 105 ± 3.59% | 104 ± 9.46% | 109 ± 4.39% | 96 ± 3.69% | 7.40±0.059% and 7.40% | 7.46±0.679% and 7.46% | 8.61±0.403% and 8.61% | 7.19±0.209% and 7.19% | 6.36±0.036% and 6.36% | IC50 ([2]; Homo sapiens, 48 h, mean (95% confidence interval)): 2.31 µM; patients developing drug resistance ([6]; MF patients treated for 1 year, type I JAK inhibitors such as RUX): more than 40%; effect on symptoms, clonal hematopoiesis, mutant gene load ([6]; clinical use): cannot reduce the load of mutant genes; side effects / safety in patients ([6]; clinical use): more severe anemia; also recorded: bone marrow suppression as a common side effect; spleen volume and symptoms ([6]; intermediate- and high-risk MF and PV, Phase II and III trials, vs optimal therapy): can reduce the spleen volume and alleviate symptoms; drug resistance index (ratio of IC50s of resistant and naive cells) ([3]; HEL^RE vs HEL cells, 2880 min): 19.0; IC50 ([3]; Homo sapiens, HEL^RE cells, 48 h, mean (95% confidence interval)): 44.7 µM |
